Data taken from ChEMBL document CHEMBL5303708, “ECBD screening data for assay EOS300033” (2021).
Residues, ends and D or L forms follow the SMILES beside them. *: point of attachment. Cbz = O=C(OCc1ccccc1)*

Tested on: SARS-CoV-2
Set-up: species or system Chlorocebus sabaeus, Vero C1008
Conditions: assay_design cell number determination; assay_format cell based format; assay_stage confirmatory assay; assaysupport stable transfection; bao_tags Fluorescence imaging cell growth inhibition assay; bioassay Fluorescence imaging cell growth inhibition assay; bioassay_setting in vitro; bioassay_type functional; detectioninstrument ArrayScan XTI HCS Reader; detectionmethod fluorescence microscopy

Compound	IC50 relative [µM]
O=C(Nc1ccc(Cl)c(Cl)c1)Nc1ccc(Cl)c(Cl)c1	5.12
Nc1nc(S)c2ncn(C3OC(CO)C(O)C3O)c2n1 (stereo not drawn)	16.2319
CS(=O)(=O)O.Cc1c(C(=O)c2cccc3ccccc23)c2cccc3c2n1[C@H](CN1CCOCC1)CO3	11.9328
CC(C)(C)C(=O)/C(=C/c1cccc([N+](=O)[O-])c1)n1cncn1	4.9629
COc1cc(/C=C2\SC(=O)NC2=O)ccc1Oc1ccc(C#N)cc1C(F)(F)F	49.4361
COc1cc2c(NC3CCN(C4CCCCC4)CC3)nc(N3CCCN(C(C)C)CC3)nc2cc1OCCCN1CCCCC1	17.2224
O=c1cc(N2CCOCC2)oc2c(-c3cccc4c3sc3ccccc34)cccc12	145.964
CC(C)(C)c1cc(C=C(C#N)C#N)cc(Br)c1O	7.2055
CC(C)(C)c1ccccc1Oc1ncccc1NC(=O)Nc1ccc(OC(F)(F)F)cc1	9.5826
C/C(=C\c1ccc(C(=O)O)cc1)c1ccc2c(c1)C(C)(C)CCC2(C)C	54.1303
COc1cc2ncnc(Nc3cccc(Br)c3)c2cc1OC	13.3328
Nc1ncnc2c1ncn2[C@@H]1CC[C@@H](O)[C@H]1O	3.6981
C[C@@H]1COCCN1c1cc(=O)n2c(n1)N(Cc1cncc(Cl)c1)[C@H](C(F)(F)F)CC2	19.8832
O=C(C1CC1)N1CC[C@@H](Cc2n[nH]c(=O)n2-c2ccc(-c3ccc4occc4c3)cc2)C1	32.5565
CCN(CC)c1ccc2cc(-c3nc4ccccc4[nH]3)c(=O)oc2c1	0.3531
Nc1ncc(-c2ccnc(Nc3ccncc3)n2)c(CC2CC2)n1	12.577
CC(C)(O)CNc1ncc(-c2ccnc(Nc3ccnc(Cl)c3)n2)c(CC2CC2)n1	793.9225
CCCCn1c(NC(=O)c2cccs2)c(C#N)c2nc3ccccc3nc21	13.3332
Cl.O=C(O)Cc1cccc(OCCCN(Cc2cccc(C(F)(F)F)c2Cl)CC(c2ccccc2)c2ccccc2)c1	16.3401
CCc1c(-c2ccc3[nH]ncc3c2)cnc(N)c1-c1ccc(O)cc1	51.0608
Cc1ccc(Oc2nc3cc(-c4ccc(-c5ccccc5)cc4)c(Cl)cc3[nH]2)cc1C(=O)O	351.9839
N#Cc1cccc(C#N)c1-c1nc2c3ccc(Cl)cc3c3ccccc3c2[nH]1	15.4145
COc1ccc(-c2c[nH]c3nccc(-c4ccsc4)c23)c(OC)c1	28.2582
O=C(O)c1ccc(N2C(=O)/C(=C\c3ccc(-c4ccc([N+](=O)[O-])cc4)o3)C=C2c2ccccc2)cc1	651.6971

Compound	IC50 relative [µM]
Cl.Cl.N[C@H]1CC[C@H](N[C@@H]2C[C@H]2c2ccccc2)CC1	65.2065
CS(=O)(=O)O.Cc1c(O)cccc1C(=O)NC(CSc1ccccc1)C(O)CN1CC2CCCCC2CC1C(=O)NC(C)(C)C (stereo not drawn)	15.1399
Cl.O=C(c1c2ccccc2cc2ccccc12)N1CCC(N2CCC[C@@H](C(=O)N3CCOCC3)C2)CC1	4.1627
Cc1cnc(Nc2ccc(F)cc2Cl)nc1-c1c[nH]c(C(=O)N[C@H](CO)c2cccc(Cl)c2)c1	9.1133
Nc1nc(O)c2[nH]nnc2n1 [8-AZAGUANINE]	3.8962
Nc1nc(N)c2nc(CNc3ccc(C(=O)N[C@@H](CCC(=O)O)C(=O)O)cc3)cnc2n1 [AMINOPTERIN]	0.3554
CNCc1ccc(-c2cc(-c3nc(-c4ccc(S(=O)(=O)C(C)C)cc4)cnc3N)on2)cc1 [BERZOSERTIB]	33.669
Oc1c(Cl)cc(Cl)cc1Sc1cc(Cl)cc(Cl)c1O [BITHIONOL]	17.6664
CCCCOCCOc1ccc(-c2ccc3c(c2)/C=C(/C(=O)Nc2ccc([S@@+]([O-])Cc4cncn4CCC)cc2)CCCN3CC(C)C)cc1 [CENICRIVIROC]	52.7809
C[C@@H]1C[C@@H]([C@H](O)CC2CC(=O)NC(=O)C2)C(=O)[C@@H](C)C1 [CYCLOHEXIMIDE]	2.4209
CC1=NN(c2ccc(C)c(C)c2)C(=O)/C1=N\Nc1cccc(-c2cccc(C(=O)O)c2)c1O [ELTROMBOPAG]	56.9757
COc1ccccc1[C@H](Cn1c(=O)n(C(C)(C)C(=O)O)c(=O)c2c(C)c(-c3ncco3)sc21)OC1CCOCC1 [FIRSOCOSTAT]	0.1223
CC[n+]1c(-c2ccccc2)c2cc(N)ccc2c2ccc(N)cc21.[Br-] [HOMIDIUM BROMIDE]	96.2744
CC(=O)[C@]1(O)Cc2c(O)c3c(c(O)c2[C@@H](O[C@H]2C[C@H](N)[C@H](O)[C@H](C)O2)C1)C(=O)c1ccccc1C3=O.Cl [IDARUBICIN HYDROCHLORIDE]	28.5706
CN(Cc1cnc2nc(N)nc(N)c2n1)c1ccc(C(=O)N[C@@H](CCC(=O)O)C(=O)O)cc1 [METHOTREXATE]	0.0551
CC(C)C[C@@H](C=O)NC(=O)[C@H](CC(C)C)NC(=O)[C@H](CC(C)C)NC(=O)OCc1ccccc1 [MG-132] (Cbz-Leu-Leu-Leu-aldehyde)	4.4656
COc1ccc2c(c1)[C@]1(C[C@H]1c1ccc3c(/C=C/c4ccc(CN5C[C@@H](C)O[C@@H](C)C5)cc4)n[nH]c3c1)C(=O)N2 [OCIFISERTIB]	14.7188
C#CCC(Cc1cnc2nc(N)nc(N)c2n1)c1ccc(C(=O)N[C@@H](CCC(=O)O)C(=O)O)cc1 (stereo partly drawn) [PRALATREXATE]	0.0052
Cn1c(Nc2ccc(C(F)(F)F)cc2)nc2cc(Oc3ccnc(-c4ncc(C(F)(F)F)[nH]4)c3)ccc21 [RAF-265]	10.7684
CNC(=O)c1cc(Oc2ccc(NC(=O)Nc3ccc(Cl)c(C(F)(F)F)c3)c(F)c2)ccn1 [REGORAFENIB]	16.4573
CN(C)c1cccc(-c2c3c(=O)n(-c4ccccc4Cl)[nH]c3cc(=O)n2C)c1 [SETANAXIB]	73.5962
O=C(Nc1ccc(Cl)cc1)Nc1ccc(Cl)c(Cl)c1 [TRICLOCARBAN]	8.2868
COc1cc(NCc2ccc3nc(N)nc(N)c3c2C)cc(OC)c1OC [TRIMETREXATE]	0.3486
CC(C)(C)c1cc(C=C(C#N)C#N)cc(C(C)(C)C)c1O [TYRPHOSTIN A9]	0.8215
